How the values were obtained:
[1] = molecular target: T1, rat μ (C6-MOR) opioid receptor (Rattus norvegicus, UniProt P33535); assay: Radioligand binding assay, [3H]diprenorphine displacement, MOR; conditions: displacement of 0.2 nM [3H]diprenorphine, C6-MOR membranes; mean ± standard error
T1 construct: expressed in transfected cells
Description: (§1) In Vitro Pharmacology-Cell Lines and Membrane Preparations. All tissue culture reagents were purchased from Gibco Life Sciences (Grand Island, N.Y., U.S.). C6-rat glioma cells stably transfected with a rat μ (C6-MOR) or rat δ (C6-DOR) opioid receptor20 and Chinese hamster ovary (CHO) cells stably expressing a human K (CHO-KOR) opioid receptor21 were used for all in vitro assays. Cells were grown to confluence at 37° C. in 5% CO2 in Dulbecco's modified Eagle medium containing 10% fetal bovine serum and 5% penicillin/streptomycin. Membranes were prepared by washing confluent cells three times with ice cold phosphate buffered saline (0.9% NaCl, 0.61 mM Na2HPO4, 0.38 mM KH2PO4, pH 7.4). Cells were detached from the plates by incubation in warm harvesting buffer (20 mM HEPES, 150 mM NaCl, 0.68 mM EDTA, pH 7.4) and pelleted by centrifugation at 200 g for 3 min. The cell pellet was suspended in ice-cold 50 mM Tris-HCl buffer, pH 7.4, and homogenized with a Tissue Tearor (Biospec Products, Inc., Bartlesville, Okla., U.S.) for 20 s at setting 4. The homogenate was centrifuged at 20 000 g for 20 min at 4° C., and the pellet was rehomogenized in 50 mM Tris-HCl with a Tissue Tearor for 10 s at setting 2, followed by recentrifugation. The final pellet was resuspended in 50 mM Tris-HCl and frozen in aliquots at […]. Protein concentration was determined via Bradford assay using bovine serum albumin as the standard.
(§2) Radioligand Binding Assays. Radioactive compounds were purchased from Perkin-Elmer (Waltham, Mass., U.S.). Opioid ligand binding assays were performed using competitive displacement of 0.2 nM [3H]diprenorphine (250 μCi, 1.85 TBq/mmol) by the test compound from membrane preparations containing opioid receptors. The assay mixture, containing membrane suspension (20 μg protein/tube) in 50 mM Tris-HCl buffer (pH 7.4), [3H]diprenorphine, and various concentrations of test peptide, was incubated at room temperature for 1 h to allow binding to reach equilibrium. The samples were rapidly filtered through Whatman GF/C filters using a Brandel harvester (Brandel, Gaithersburg, Md., U.S.) and washed three times with 50 mM Tris-HCl buffer. The radioactivity retained on dried filters was determined by liquid scintillation counting after saturation with EcoLume liquid scintillation cocktail in a Wallac 1450 MicroBeta (Perkin-Elmer, Waltham, Mass., U.S.). Nonspecific binding was determined using 10 μM naloxone. Inhibitory constant (Ki) values were calculated using nonlinear regression analysis to fit a logistic equation to the competition data using GraphPad Prism, version 5.01, for Windows (GraphPad Software Inc., La Jolla, Calif.). The results presented are the mean±standard error from at least three separate assays performed in duplicate.

[2] = molecular target: T1, rat μ (C6-MOR) opioid receptor; assay: Stimulation of [35S]GTPγS binding, MOR; assay type: biochemical; conditions: for EC50: [35S]GTPγS binding, C6-MOR membranes, mean ± standard error; for Emax: [35S]GTPγS maximal stimulation compared with 10 μM standard DAMGO
Description: as §1
(§3) Stimulation of [^35S]GTPyS Binding. Agonist stimulation of [35S]guanosine 5′-O-[γ-thio]triphosphate ([^35S]GTPγS, 1250 Ci, 46.2 TBq/mmol) binding was measured as described previously Briefly, membranes (10-20 μg of protein/tube) were incubated 1 h at room temperature in GTPyS buffer (50 mM Tris-HCl, 100 mM NaCl, 5 mM MgCl2, pH 7.4) containing 0.1 nM [^35S]GTPγS, 30 μM guanosine diphosphate (GDP), and varying concentrations of test peptides. Peptide stimulation of [^35S]GTPyS was compared with 10 μM standard compounds [D-Ala^2,N-MePhe^4,Gly-ol]encephalin (DAMGO) at MOR, D-Pen^2,5-enkephalin (DPDPE) at DOR, or […] at KOR. The reaction was terminated by rapidly filtering through GF/C filters and washing 10 times with GTPyS buffer, and retained radioactivity was measured as described above. The results presented are the mean±standard error from at least three separate assays performed in duplicate; maximal stimulation was determined using nonlinear regression analysis with GraphPad Prism (GraphPad Software Inc., La Jolla, Calif.).

[3] = molecular target: T2, human κ (CHO-KOR) opioid receptor (Homo sapiens, UniProt P41145); assay: Stimulation of [35S]GTPγS binding, KOR; assay type: biochemical; conditions: for EC50: [35S]GTPγS binding, CHO-KOR membranes, mean ± standard error; for Emax: [35S]GTPγS maximal stimulation compared with 10 μM standard U-69,593
T2 construct: expressed in transfected cells
Description: as §1, §3

[4] = molecular target: T3, rat δ (C6-DOR) opioid receptor (Rattus norvegicus, UniProt P33533); assay: Radioligand binding assay, [3H]diprenorphine displacement, DOR; conditions: displacement of 0.2 nM [3H]diprenorphine, C6-DOR membranes; mean ± standard error
T3 construct: expressed in transfected cells
Description: as §1, §2

[5] = molecular target: T2, human κ (CHO-KOR) opioid receptor; assay: Radioligand binding assay, [3H]diprenorphine displacement, KOR; conditions: displacement of 0.2 nM [3H]diprenorphine, CHO-KOR membranes; mean ± standard error
Description: as §1, §2

[6] = molecular target: T3, rat δ (C6-DOR) opioid receptor; assay: Stimulation of [35S]GTPγS binding, DOR; assay type: biochemical; conditions: for EC50 / EC50 (nm) DOR: [35S]GTPγS binding, C6-DOR membranes, mean ± standard error; for Emax / % stimulation DOR: [35S]GTPγS maximal stimulation compared with 10 μM standard DPDPE
Description: as §1, §3

T2 sequence (P41145 whole entry): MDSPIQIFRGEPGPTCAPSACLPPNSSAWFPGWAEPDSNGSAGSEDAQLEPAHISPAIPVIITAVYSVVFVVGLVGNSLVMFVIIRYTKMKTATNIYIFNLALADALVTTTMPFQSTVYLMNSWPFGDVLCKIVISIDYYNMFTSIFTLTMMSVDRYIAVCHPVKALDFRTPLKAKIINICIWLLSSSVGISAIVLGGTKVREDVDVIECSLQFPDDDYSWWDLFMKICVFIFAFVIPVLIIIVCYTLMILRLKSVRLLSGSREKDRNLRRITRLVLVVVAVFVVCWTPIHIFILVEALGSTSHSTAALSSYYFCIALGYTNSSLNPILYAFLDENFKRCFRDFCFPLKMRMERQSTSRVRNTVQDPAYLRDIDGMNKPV
T1 sequence (P33535 whole entry): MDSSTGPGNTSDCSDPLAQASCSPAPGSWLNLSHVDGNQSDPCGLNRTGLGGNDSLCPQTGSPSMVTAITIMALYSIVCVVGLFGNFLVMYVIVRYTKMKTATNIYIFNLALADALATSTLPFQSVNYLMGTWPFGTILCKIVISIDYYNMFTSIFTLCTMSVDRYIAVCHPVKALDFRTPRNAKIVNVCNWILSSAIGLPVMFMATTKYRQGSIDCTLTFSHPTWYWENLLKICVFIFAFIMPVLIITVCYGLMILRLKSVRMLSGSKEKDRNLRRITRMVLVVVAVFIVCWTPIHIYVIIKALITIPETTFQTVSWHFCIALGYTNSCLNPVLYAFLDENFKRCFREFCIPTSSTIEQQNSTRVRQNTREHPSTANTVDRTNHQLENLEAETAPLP
T3 sequence (P33533 whole entry): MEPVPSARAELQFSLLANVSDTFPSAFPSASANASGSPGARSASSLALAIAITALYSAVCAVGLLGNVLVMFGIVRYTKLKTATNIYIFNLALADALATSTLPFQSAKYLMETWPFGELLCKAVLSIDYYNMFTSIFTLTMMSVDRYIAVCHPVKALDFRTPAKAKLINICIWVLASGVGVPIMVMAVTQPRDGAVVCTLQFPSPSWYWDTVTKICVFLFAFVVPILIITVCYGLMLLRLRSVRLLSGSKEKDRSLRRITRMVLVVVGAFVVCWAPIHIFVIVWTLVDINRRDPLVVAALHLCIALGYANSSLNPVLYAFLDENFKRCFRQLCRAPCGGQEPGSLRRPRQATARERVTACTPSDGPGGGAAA

| SMILES | Ki [1] | EC50 [2] | Emax [2] | EC50 [3] | Emax [3] | Ki [4] | Ki [5] | EC50 [6] | Emax [6] | EC50 (nm) DOR [6] | % stimulation DOR [6] |
| --- | --- | --- | --- | --- | --- | --- | --- | --- | --- | --- | --- |
| Cc1cc(O)cc(C)c1C[C@H](N)C(=O)N(C)[C@@H]1CCNc2ccc(Cc3ccccc3)cc21 [Compound 1001] | 0.9 ± 0.3 nM | 3 ± 0.31 nM | 80.6 ± 4.7% | 488 ± 142 nM | 3.9 ± 0.9% | 15.7 ± 3.7 nM | 116 ± 30 nM | 410 ± 138 nM | 12.6 ± 5.5% | – | – |
| Cc1cc(O)cc(C)c1C[C@H](N)C(=O)N(C)[C@H]1CCNc2ccc(Cc3ccccc3)cc21 [Compound 1002] | 0.8 ± 0.04 nM | 0.463 ± 0.1 nM | 65.6 ± 4.4% | 7.2 ± 0.4 nM | 8.3 ± 2.4% | 8.5 ± 0.2 nM | 4.1 ± 0.4 nM | – | 2.2 ± 2.2% | – | – |
| Cc1cc(O)cc(C)c1C[C@H](N)C(=O)N[C@@H]1CCN(C)c2ccc(Cc3ccccc3)cc21 [Compound 1004] | 0.555 ± 0.242 nM | 4 ± 0.9 nM | 102 ± 4.6% | 2220 ± 1020 nM | 44 ± 8.2% | 7.3 ± 3.5 nM | 27.8 ± 0.7 nM | 486 nM | 4.3 ± 4.3% | – | – |
| Cc1cc(O)cc(C)c1C[C@H](N)C(=O)N[C@H]1CCN(C)c2ccc(Cc3ccccc3)cc21 [Compound 1005] | 71.4 ± 18.4 nM | 214 ± 41 nM | 72.2 ± 3.6% | – | 1.6 ± 1.4% | 138 ± 29.8 nM | 632 ± 78 nM | – | 0% | – | – |
| CCCN1CC[C@@H](NC(=O)[C@@H](N)Cc2c(C)cc(O)cc2C)c2cc(Cc3ccccc3)ccc21 [Compound 1006] | 0.34 ± 0.21 nM | 16.4 ± 8.18 nM | 83.1 ± 3.25% | 5010 ± 1020 nM | 38.2 ± 3.42% | 1.72 ± 0.61 nM | 71.7 ± 20 nM | 2330 ± 1030 nM | 39.3 ± 5.45% | – | – |
| Cc1ccc(Cc2ccc3c(c2)[C@H](NC(=O)[C@@H](N)Cc2c(C)cc(O)cc2C)CCN3)cc1 [Compound 1007] | 0.11 nM | – | 99% | – | 14% | 6.1 nM | 18 nM | – | 13% | – | – |
| Cc1ccc(Cc2ccc3c(c2)[C@@H](NC(=O)[C@@H](N)Cc2c(C)cc(O)cc2C)CCN3)cc1 [Compound 1008] | 11 nM | – | 55% | – | 0% | 582 nM | 50 nM | – | 3% | – | – |
| Cc1cc(O)cc(C)c1C[C@H](N)C(=O)N[C@@H]1CCNc2ccc(Cc3ccc(F)cc3)cc21 [Compound 1009] | 0.07 nM | – | 69% | – | 9% | 4 nM | 6.6 nM | – | 16% | – | – |
| CCCC(=O)N1CC[C@@H](NC(=O)[C@@H](N)Cc2c(C)cc(O)cc2C)c2cc(CC3Cc4ccccc4C3)ccc21 [Compound 1034] | 0.13 ± 0.02 nM | 4.08 ± 1.58 nM | 63.2 ± 12.6% | – | – | 0.38 ± 0.07 nM | 25.5 ± 0.85 nM | – | – | dns | dns |
| Cc1cc(O)cc(C)c1C[C@H](N)C(=O)N[C@@H]1CCNc2ccc(CC3Cc4cccc(O)c4C3)cc21 (stereo partly drawn) [Compound 1036, (2S)-2-amino-N-((4R)-6-((4-hydroxy-2,3-dihydro-1H-inden-2-yl)methyl)-1,2,3,4-tetrahydroquinolin-4-yl)-3-(4-hydroxy-2,6-dimethylphenyl)propanamide] | 0.18 ± 0.03 nM | 4.93 ± 1.15 nM | 69.1 ± 5.74% | – | – | 6.01 ± 1.31 nM | 20.6 ± 16.3 nM | – | – | dns | dns |
